What all share (type): in vivo, C57BL/6JRj mice
The test system of assay [1] is Aged C57BL/6J mice. The assay can be described thus: Rotarod test. The following applies: 1 mg/kg in the food, week 9. The method, then: The rotarod test assesses muscle strength, coordination, and endurance.[32] Mice were allowed to acclimate in the room for 30 min. […] Each mouse underwent three trials per day for three consecutive days. The latency at which the mouse either reached passive rotation or fell from the rotor was recorded. The results presented here focus on the latency of the best trial conducted on the second day.

Assay [2] deals with Aged C57BL/6J mice. The assay can be described thus: Metabolic cages (CLAMS): energy expenditure and activity. The following applies: 1 mg/kg in the food, week 19, CLAMS. The method, then:
Energy expenditure and activity during day and night were measured using the CLAMS monitoring system (Columbus instruments). Mice were housed in metabolic cages for 48 h.

In assay [3] the test system is sphingolipids in gastrocnemius muscle and brain. Nature of the assay: Sphingolipid and deoxysphingolipid analysis in gastrocnemius muscle and brain of aged mice (20 weeks). The following applies: 1 mg/kg in the food. The method, then:
Figure 4 1-deoxy-SL species accumulate in muscle and brain tissues during aging and contribute to cellular protein aggregation. (A,B) Heat map representing the abundance of sphingolipids in (A) gastrocnemius muscle and (B) brain with and without treatment with ALT-007 in mice (ALT-007 at 1 mg/kg; DMSO at equivalent volume for 20 weeks). N = 8 per group. Data are shown as log2 fold change. Adjusted P values are indicated as follows: *adjusted P < 0.05; **adjusted P < 0.01; ***adjusted P < 0.001. (C,D) Representative images and quantification of protein aggregates upon 1-deoxy-SA (C) and P053 treatment (D) in human primary IBM cells; both were administered at 4 μM for 24 h. N = 8 per group. (E) Analysis of 1-Deoxy-Spa and 1-DeoxyCer 24:1 levels in myoblasts from healthy and IBM patients. N = 3 per group. (C–E) Quantitative data are expressed as median with IQR and compared using the Mann–Whitney U test. All tests were 2 sided. *P < 0.05, **P < 0.01, ***P < 0.001.
Sphingolipid and deoxysphingolipid measurements were performed by liquid chromatography–tandem mass spectrometry (LC–MS/MS) analysis as described in previous studies.[12],[13],[28]−[30] […]
ESI source conditions were used as follows: dry gas temperature, 230 °C; nebulizer, 35 psi and flow rate of 14 L min^–1; sheath gas temperature, 400 °C and flow rate of 12 L min^–1; nozzle voltage, 500 V; and capillary voltage, 4000 V. Dynamic multiple reaction monitoring was used as the acquisition mode with a total cycle time of 500 ms. […] Raw LC–MS/MS data were processed applying Agilent Quantitative Analysis software (version B.07.00, MassHunter Agilent Technologies).
Absolute quantification was based on calibration curves and stable isotope-labeled internal standards to determine the response factor for each metabolite, with linearity assessed using 12-point range standard curves. […] Sphingolipid concentrations were reported and protein concentrations in protein pellets (measured by BCA, Thermo Fisher Scientific) were determined after metabolite extraction. […]

Assay [4] deals with gastrocnemius muscles of aged mice. The assay can be described thus: RNAseq / gene set enrichment analysis of gastrocnemius muscle of aged mice. The method, then:
Figure 3 ALT-007 preserves muscle mass and rewires skeletal muscle gene expression during aging. (A) Lean mass measured by echoMRI after 11 weeks of treatment (ALT-007:1 mg/kg; DMSO: equivalent volume, for 20 weeks). (B) Gastrocnemius and (C) Tibialis anterior muscle weight after 20 weeks of treatment. N = 12 per group. (D) Total ceramide levels measured in the gastrocnemius muscle. (E) Volcano plot of mitochondrial, proteostasis, amino acids, biosynthetic processes, and neuronal-related gene sets highlighted. (F,G) Gene set enrichment analysis (GSEA) of (F) pathways involved in protein folding and degradation and (G) neurogenesis pathways in the skeletal muscle of mice treated with ALT-007 (N = 5 in DMSO and N = 4 in ALT-007-treated groups). Adjusted P values in GSEA comparison are indicated as follows: *adjusted P < 0.05; **adjusted P < 0.01; ***adjusted P < 0.001.
RNA seq analysis was performed as previously described. Changes in cell composition were assessed by gene set enrichment analysis (GSEA) with the clusterProfiler package (Yu G. et al., 2012) and the MsigDB v7.5.1 mouse cell type signature set, accessed through the msigdbr package was performed. Only the gene sets relevant to skeletal muscle and neuronal cell types were retained.
1.2. Supplementary Figure 2
Gene set enrichment analysis using the MsigDB mouse cell type signature sets. Only the gene sets relevant to skeletal muscle and neuronal cell types were retained.
GSEA was performed with the cluserProfiler package and gene sets were accessed through the MsigDBr package.
(1 picture or pasted object on this page, not shown here)

Setting [5] is: gastrocnemius of aged mice, ALT-007 vs DMSO.

Regarding `COc1cc(C(=O)N2CC[C@H](NC(=O)c3ccccc3OC(F)(F)F)c3c2cnn3C(C)C)cnc1OC` [ALT-007], in the assay with Aged C57BL/6J mice [1], the “coordination measured by the rotarod test” value was “improved”. Besides, in the assay with Aged C57BL/6J mice [2], the “energy expenditure (kCal/h) at night” value is “significant increase”. Also, in the assay on Aged C57BL/6J mice [2] (vs aged control), the global physical activity entry was “completely restored the decline in global physical activity”. Also, in assay [3], the “1-deoxy-SLs in the brain” value is given as “attenuated the age-related increase in 1-deoxy-SLs”; the “total ceramides in the gastrocnemius” value was “lower levels of total ceramides”; the “very long chain 1-deoxy-SLs (1-deoxyCer 22, 1-deoxyCer 24:1, N-C24:1-deoxysphinganine) in the gastrocnemius muscle” value was “attenuated”. Besides, in assay [4] (setting [5]), the “neurogenesis pathways in the muscle, GSEA” value is reported as “remarkable upregulation of neurogenesis pathways”; the “proteostasis pathways (protein folding and degradation), GSEA” value is recorded as “enrichment of several proteostasis pathways”; the “ribosomal and translation pathways, GSEA” value is “significantly attenuated”. The “neuronal cells in the skeletal muscles (GSEA, MsigDB mouse cell type signature sets)” value in assay [4] (old treated vs old untreated mice) is “increases neuronal cells”.

For the origin of these results see publication PMC11729425 (ACS Pharmacology & Translational Science, 2024).
